The results in this text go back to patent publication US8546373B2 (Biogenic Innovations, LLC, priority 2009, dated 2013).

In the data set the test system is Streptococcus pneumonia. The following applies: 7 h, 5 %.

`C[S+](C)[O-]` [DMSO, dimethyl sulfoxide]: the reduction in viability entry was “approximately 25%”.
